According to ChEMBL document CHEMBL1131827, “Ring E analogs of methyllycaconitine (MLA) as novel nicotinic antagonists” (Bioorg Med Chem Lett, 1999):

Molecular target: Chromaffin cell neuronal nicotinic acetylcholine receptor (Bos taurus) (UniProt Q8SPU6+Q07263+P54131)
Test: Antagonist activity was determined by inhibition of neuronal nicotine acetylcholine receptor (nAChR)-stimulated catecholamine release in cultured bovine adrenal chromaffin cells
Format: functional
Set-up: concentration or dose not given beside the values
Conditions: concentration not given here

Chromaffin cell neuronal nicotinic acetylcholine receptor (Bos taurus), sequence (P54131 whole entry, looked up): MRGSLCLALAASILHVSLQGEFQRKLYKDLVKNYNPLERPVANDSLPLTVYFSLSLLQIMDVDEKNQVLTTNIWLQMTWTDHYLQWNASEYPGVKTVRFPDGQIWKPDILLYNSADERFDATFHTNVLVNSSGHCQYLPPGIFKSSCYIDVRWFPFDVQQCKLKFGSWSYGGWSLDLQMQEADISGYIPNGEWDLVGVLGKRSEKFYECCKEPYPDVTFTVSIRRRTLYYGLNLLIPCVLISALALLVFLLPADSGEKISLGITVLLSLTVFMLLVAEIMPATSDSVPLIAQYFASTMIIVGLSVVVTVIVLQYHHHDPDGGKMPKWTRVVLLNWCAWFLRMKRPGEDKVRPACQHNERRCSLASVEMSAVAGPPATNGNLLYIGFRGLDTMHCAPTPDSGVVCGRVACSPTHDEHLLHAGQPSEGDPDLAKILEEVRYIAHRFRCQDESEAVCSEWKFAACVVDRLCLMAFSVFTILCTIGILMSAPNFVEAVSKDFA
Chromaffin cell neuronal nicotinic acetylcholine receptor (Bos taurus), sequence (Q07263 whole entry, looked up): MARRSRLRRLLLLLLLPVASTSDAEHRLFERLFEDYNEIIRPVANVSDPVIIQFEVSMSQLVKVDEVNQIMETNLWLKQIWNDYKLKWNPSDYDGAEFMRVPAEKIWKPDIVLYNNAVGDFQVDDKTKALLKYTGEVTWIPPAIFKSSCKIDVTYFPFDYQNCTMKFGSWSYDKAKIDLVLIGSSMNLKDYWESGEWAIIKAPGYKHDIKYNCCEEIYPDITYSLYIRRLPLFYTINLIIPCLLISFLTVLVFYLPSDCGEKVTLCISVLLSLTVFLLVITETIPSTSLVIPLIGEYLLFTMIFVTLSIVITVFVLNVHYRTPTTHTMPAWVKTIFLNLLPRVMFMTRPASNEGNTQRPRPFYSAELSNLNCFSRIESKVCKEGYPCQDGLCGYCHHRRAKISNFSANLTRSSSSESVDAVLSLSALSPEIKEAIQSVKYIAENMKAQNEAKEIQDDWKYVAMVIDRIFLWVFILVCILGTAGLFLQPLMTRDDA
Chromaffin cell neuronal nicotinic acetylcholine receptor (Bos taurus), sequence (Q8SPU6 whole entry, looked up): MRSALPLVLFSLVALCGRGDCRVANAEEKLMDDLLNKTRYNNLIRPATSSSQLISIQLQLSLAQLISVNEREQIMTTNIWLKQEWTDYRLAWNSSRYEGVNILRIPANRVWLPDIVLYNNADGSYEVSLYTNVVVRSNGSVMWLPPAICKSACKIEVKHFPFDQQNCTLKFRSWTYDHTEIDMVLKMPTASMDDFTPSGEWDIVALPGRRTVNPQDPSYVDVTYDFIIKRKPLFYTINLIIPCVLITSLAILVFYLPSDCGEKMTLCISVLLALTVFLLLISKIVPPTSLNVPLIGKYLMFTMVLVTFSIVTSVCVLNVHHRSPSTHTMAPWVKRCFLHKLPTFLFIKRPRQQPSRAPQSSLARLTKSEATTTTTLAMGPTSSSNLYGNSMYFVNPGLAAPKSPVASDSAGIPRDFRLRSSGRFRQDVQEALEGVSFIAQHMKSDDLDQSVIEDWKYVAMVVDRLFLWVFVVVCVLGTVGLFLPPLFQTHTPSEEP

Point of comparison: `CC1CC(=O)N(c2ccccc2C(=O)OCC2CCCN(C)C2)C1=O` (centres undefined), inhibition 30.1%. Against it:
- CC1CC(=O)N(c2ccccc2C(=O)OCC2CCCN(CCCc3ccccc3)C2)C1=O (centres undefined) — higher, 86.3%
- CCOCCN1CCCC(COC(=O)c2ccccc2N2C(=O)CC(C)C2=O)C1 (centres undefined) — higher, 45.9%
- CCN1C[C@]2(COC(=O)c3ccccc3N3C(=O)C[C@H](C)C3=O)CC[C@H](OC)[C@@]34[C@@H]5C[C@H]6[C@H](OC)[C@@H]5[C@](O)(C[C@@H]6OC)[C@](O)([C@@H](OC)[C@H]23)[C@@H]14 — higher, 95.2%
- CC(C)N1CCCC(COC(=O)c2ccccc2N2C(=O)CCC2=O)C1 (centres undefined) — higher, 36.4%
- CCN1CCCC(COC(=O)c2ccccc2N2C(=O)CC(C)C2=O)C1 (centres undefined) — higher, 33.5%
- CCCCN1CCCC(COC(=O)c2ccccc2N2C(=O)CCC2=O)C1 (centres undefined) — higher, 38.4%
- CC1CC(=O)N(c2ccccc2C(=O)OCC2CCCN(C(C)C)C2)C1=O (centres undefined) — higher, 56.5%
- CC1CC(=O)N(c2ccccc2C(=O)OCC2CCCN(CCc3ccccc3)C2)C1=O (centres undefined) — higher, 37%
